The values that follow come from patent publication US12642886B2, “POSS viscoelastic hemostatic agents” (Hybrid Plastics, Incorporated, priority 2019, dated 2026).

One may read the viscosity as the resistance of a fluid to flow. Read a high viscosity as a thick fluid.

The nature of this data set: Viscometric properties (oscillatory rheology, shear sweep). In kind it is physicochemical. The method, then: The molecular weight of trisilanol i-octyl POSS® at 1184 g/mol, is generally equivalent to that of common silicone oligomers. In comparison to telechelic silanol polydimethylsiloxanes, trisilanol i-octylPOSS is unique in terms of its high viscosity (27 Pa·s at 24° C.) relative to the 4.3 wt % of silanol it contains. Telechelic silanol polydimethylsiloxanes and diphenyl-siloxane-dimethyl-siloxane copolymers with equivalent silanol contents are generally low viscosity fluids
Oscillatory rheology was utilized to determine the viscometric characteristics of i-octylPOSS trisilanol versus mixtures containing solid hemostatic agents suspended in the carrier fluid, i-octylPOSS trisilanol. The solid hemostatic agents utilized for these tests were chitin and kaolin. Shear sweep measurements of viscosity at 37° C. over the range of 0.01-100 s^−1 were deemed adequate to assess reproducibility of the hemostat agent mixtures.
It is non-Newtonian attributes are evidenced by a reduction of viscosity relative to shear rate. The shear thinning behavior is useful as it enables the hemostat to be syringable or pourable yet to remain in place once deposited onto a wound. Desirably, the viscosity of this hemostat can be controlled simply by increasing or decreasing the amount of kaolin incorporation.
A similar viscosity test was performed using chitin as the solid hemostatic additive.

Take “trisilanol hepta-isoOctyl POSS [i-octylPOSS trisilanol]”: the viscosity (at 24° C.) came out at 27 Pa·s. For the same substance, the “rheological behaviour (viscosity relative to shear rate)” value (shear sweep 0.01-100 s^−1 at 37° C.) is reported as “Newtonian fluid”.
